Source: article PMC8069214, “Synthesis, Biological Evaluation, and Molecular Modeling of Aza-Crown Ethers” (Molecules, 2021)

system: human neutrophils; test: Inhibition of fMLF-induced [Ca2+]i flux in human neutrophils; assay type: cell-based; details: Neutrophil, 10 min preincubation, 5 nM fMLF, N.A. = no activity at < 50 µM, read-out: FPR1/FPR2 Agonist-Induced Δ[Ca^2+]i Neutrophils IC50
Method: (§1) Since these compounds elevated neutrophil [Ca^2+]i, and cytosolic Ca^2+ flux is a key component of neutrophil activation, we evaluated if they could alter neutrophil activation by FPR1 or FPR2 agonists. Neutrophils and FPR-transfected HL60 cells were preincubated for 10 min with crown ether compounds, and [Ca^2+]i flux was stimulated with either an FPR1 agonist (fMLF for human neutrophils and FPR1-HL60 cells) or an FPR2 agonist (WKYMVM for FPR2-HL60 cells).
(§2) Changes in neutrophil intracellular Ca^2+ concentrations ([Ca^2+]i) were measured with a FlexStation 3 scanning fluorometer (Molecular Devices, Sunnyvale, CA, USA). Briefly, human neutrophils were suspended in HBSS^−, loaded with Fluo-4AM at a final concentration of 1.25 μg/mL, and incubated for 30 min in the dark at 37 °C. After dye loading, the cells were washed with HBSS^−, resuspended in HBSS^+, separated into aliquots, and loaded into the wells of flat-bottom, half-area well black microtiter plates (2 × 10^5 cells/well). To assess the direct effects of test compounds on Ca^2+ flux, the compounds were added to the wells (final concentration of DMSO was 1%), and changes in fluorescence were monitored (λex = 485 nm, λem = 538 nm) every 5 s for 240 s at room temperature after addition of the test compound. To evaluate inhibitory effects of the compounds on FPR1/FPR2-dependent Ca^2+ flux, the compounds were added to the wells (final concentration of DMSO was 1%) with cells (human neutrophils or FPR1/FPR2 HL60 cells). The samples were preincubated for 10 min, followed by addition of 5 nM fMLF (for human neutrophils or FPR1-HL60 cells) or 5 nM WKYMVM (for FPR2-HL60 cells). The maximum change in fluorescence, expressed in arbitrary units over baseline, was used to determine the agonist response. Responses were normalized to the response induced by 5 nM fMLF or 5 nM WKYMVM, which were assigned as 100%. Curve fitting (at least five or six points) and calculation of median effective concentration values (EC50 or IC50) were performed by nonlinear regression analysis of the dose–response curves generated using Prism 7 (GraphPad Software, Inc., San Diego, CA, USA). Efficacy was determined by comparing individual responses activated by the test compounds to that induced by a positive control (5 nM fMLF), which was assigned a value of 100%.

Row | IC50 | Compound
1 | 7.4 ± 1.3 µM | O=C(N1CCOCCOCCN(C(=O)C23CC4CC(CC(C4)C2)C3)CCOCC1)C12CC3CC(CC(C3)C1)C2 [Compound 13, N,N’-bis[1-oxo-1-(1-adamantyl)methyl]-4,10-diaza-15-crown-5]
2 | 3.5 ± 0.4 µM | O=C(N1CCOCCOCCOCCN(C(=O)C23CC4CC(CC(C4)C2)C3)CCOCC1)C12CC3CC(CC(C3)C1)C2 [Compound 14, N,N’-bis[1-oxo-1-(1-adamantyl)methyl]-4,10-diaza-18-crown-6]
3 | 4.1 ± 0.6 µM | O=C(CC12CC3CC(CC(C3)C1)C2)N1CCOCCOCCN(C(=O)CC23CC4CC(CC(C4)C2)C3)CCOCC1 [Compound 15, N,N’-bis[2-(1-adamantyl)acetyl]-4,10-diaza-15-crown-5]
4 | 1.5 ± 0.4 µM | O=C(CC12CC3CC(CC(C3)C1)C2)N1CCOCCOCCN(C(=O)CC23CC4CC(CC(C4)C2)C3)CCOCCOCC1 [Compound 17, N,N’-bis[2-(1-adamantyl)acetyl]-4,13-diaza-18-crown-6]

system: human neutrophils; test: Ca2+ mobilization assay, direct effect of compounds on [Ca2+]i; assay type: cell-based; details: Homo sapiens, Neutrophil, % of the response induced by 5 nM fMLF; read-out: Efficacy (converted)
From the text: We screened 24 aza- and diaza-crown ethers with adamantyl, adamantylalkyl, aminomethylbenzoyl, and ε-aminocaproyl substituents for their Ca^2+ ionophore effects in human neutrophils. To monitor cytoplasmic Ca^2+ levels, we used the fluorescent Ca^2+ indicator Fluo-4, which is a dynamic single-wavelength fluorescent Ca^2+ indicator. Increases in fluorescence intensity (λex = 485 nm, λem = 538 nm) reflect the rise in cytoplasmic Ca^2+ concentrations ([Ca^2+]i; see Materials and Methods).
as §2

Row | Compound | Emax
5 | O=C(N1CCOCCOCCN(C(=O)C23CC4CC(CC(C4)C2)C3)CCOCC1)C12CC3CC(CC(C3)C1)C2 [Compound 13, N,N’-bis[1-oxo-1-(1-adamantyl)methyl]-4,10-diaza-15-crown-5] | 25 to 50%
6 | O=C(N1CCOCCOCCOCCN(C(=O)C23CC4CC(CC(C4)C2)C3)CCOCC1)C12CC3CC(CC(C3)C1)C2 [Compound 14, N,N’-bis[1-oxo-1-(1-adamantyl)methyl]-4,10-diaza-18-crown-6] | 25 to 50%
7 | O=C(CC12CC3CC(CC(C3)C1)C2)N1CCOCCOCCN(C(=O)CC23CC4CC(CC(C4)C2)C3)CCOCC1 [Compound 15, N,N’-bis[2-(1-adamantyl)acetyl]-4,10-diaza-15-crown-5] | 110%

same assay, conditions: Homo sapiens, Neutrophil; elevation of [Ca2+]i, Fluo-4; N.A. = no activity was found at concentration < 50 µM; read-out: EC50, effect on [Ca^2+]i flux in human neutrophils

Row | EC50 | Compound
8 | 6.9 ± 2.1 µM | O=C(N1CCOCCOCCN(C(=O)C23CC4CC(CC(C4)C2)C3)CCOCC1)C12CC3CC(CC(C3)C1)C2 [Compound 13, N,N’-bis[1-oxo-1-(1-adamantyl)methyl]-4,10-diaza-15-crown-5]
9 | 9.5 ± 2.7 µM | O=C(N1CCOCCOCCOCCN(C(=O)C23CC4CC(CC(C4)C2)C3)CCOCC1)C12CC3CC(CC(C3)C1)C2 [Compound 14, N,N’-bis[1-oxo-1-(1-adamantyl)methyl]-4,10-diaza-18-crown-6]
10 | 4.7 ± 1.5 µM | O=C(CC12CC3CC(CC(C3)C1)C2)N1CCOCCOCCN(C(=O)CC23CC4CC(CC(C4)C2)C3)CCOCC1 [Compound 15, N,N’-bis[2-(1-adamantyl)acetyl]-4,10-diaza-15-crown-5]
11 | 15.9 ± 2.5 µM | O=C(CC12CC3CC(CC(C3)C1)C2)N1CCOCCOCCN(C(=O)CC23CC4CC(CC(C4)C2)C3)CCOCCOCC1 [Compound 17, N,N’-bis[2-(1-adamantyl)acetyl]-4,13-diaza-18-crown-6]

same assay, conditions: Neutrophil; reciprocal of EC50 in human neutrophils; inactive compounds assigned zero; read-out: 1/[EC50] (converted)

Row | EC50 | Compound
12 | 6.9 µM | O=C(N1CCOCCOCCN(C(=O)C23CC4CC(CC(C4)C2)C3)CCOCC1)C12CC3CC(CC(C3)C1)C2 [Compound 13, N,N’-bis[1-oxo-1-(1-adamantyl)methyl]-4,10-diaza-15-crown-5]
13 | 9.5 µM | O=C(N1CCOCCOCCOCCN(C(=O)C23CC4CC(CC(C4)C2)C3)CCOCC1)C12CC3CC(CC(C3)C1)C2 [Compound 14, N,N’-bis[1-oxo-1-(1-adamantyl)methyl]-4,10-diaza-18-crown-6]
14 | 4.7 µM | O=C(CC12CC3CC(CC(C3)C1)C2)N1CCOCCOCCN(C(=O)CC23CC4CC(CC(C4)C2)C3)CCOCC1 [Compound 15, N,N’-bis[2-(1-adamantyl)acetyl]-4,10-diaza-15-crown-5]
15 | 15.9 µM | O=C(CC12CC3CC(CC(C3)C1)C2)N1CCOCCOCCN(C(=O)CC23CC4CC(CC(C4)C2)C3)CCOCCOCC1 [Compound 17, N,N’-bis[2-(1-adamantyl)acetyl]-4,13-diaza-18-crown-6]

system: human neutrophils; test: PMA-induced ROS production (L-012 chemiluminescence); assay type: cell-based; details: Neutrophil, 200 nM PMA, N.A. = no activity at < 50 µM
From the text: To evaluate if the crown ethers could also disrupt GPCR-independent functional activity, we evaluated the effects of these compounds on phorbol 12-myristate 13-acetate (PMA)-stimulated reactive oxygen species (ROS) production. […] A representative concentration-dependent response for the inhibition of PMA-stimulated neutrophil ROS production by compound 15 is shown in Figure 2B. Since ROS production in neutrophils also requires increased [Ca^2+]i, the results again confirm that the impact of these compounds on Ca^2+ flux kinetics can alter neutrophil function.
ROS production was determined by monitoring L-012-enhanced chemiluminescence, which represents a sensitive and reliable method for detecting superoxide anion (O2^−.) production. Human neutrophils were resuspended at 2 × 10^5 cells/mL in HBSS^+ supplemented with 40 µM L-012. Cells (100 µL) were aliquoted into wells of 96-well flat-bottomed microtiter plates containing test compounds at different concentrations (final DMSO concentration of 1%). Cells were preincubated for 10 min, and 200 nM PMA was added to each well to stimulate ROS production. Luminescence was monitored for 120 min (2-min intervals) at 37 °C using a Fluroscan Ascent FL microtiter plate reader (Thermo Electron, Waltham, MA, USA). The curve of light intensity (in relative luminescence units) was plotted against time, and the area under the curve was calculated as total luminescence. The compound concentration that inhibited ROS production by 50% of the PMA-induced response (positive control) was determined by graphing the percentage inhibition of ROS production versus the logarithm of concentration of test sample (IC50). Each curve was determined using five to seven concentrations.

Row | IC50 | Compound
16 | 25.9 ± 2.7 µM | O=C(N1CCOCCOCCN(C(=O)C23CC4CC(CC(C4)C2)C3)CCOCC1)C12CC3CC(CC(C3)C1)C2 [Compound 13, N,N’-bis[1-oxo-1-(1-adamantyl)methyl]-4,10-diaza-15-crown-5]
17 | 21.9 ± 2.2 µM | O=C(N1CCOCCOCCOCCN(C(=O)C23CC4CC(CC(C4)C2)C3)CCOCC1)C12CC3CC(CC(C3)C1)C2 [Compound 14, N,N’-bis[1-oxo-1-(1-adamantyl)methyl]-4,10-diaza-18-crown-6]
18 | 4.1 ± 0.1 µM | O=C(CC12CC3CC(CC(C3)C1)C2)N1CCOCCOCCN(C(=O)CC23CC4CC(CC(C4)C2)C3)CCOCC1 [Compound 15, N,N’-bis[2-(1-adamantyl)acetyl]-4,10-diaza-15-crown-5]
19 | 8.2 ± 0.1 µM | O=C(CC12CC3CC(CC(C3)C1)C2)N1CCOCCOCCN(C(=O)CC23CC4CC(CC(C4)C2)C3)CCOCCOCC1 [Compound 17, N,N’-bis[2-(1-adamantyl)acetyl]-4,13-diaza-18-crown-6]

biological target: T1, FPR1 (Homo sapiens, UniProt P21462); test: Inhibition of fMLF-induced [Ca2+]i flux in FPR1-HL60 cells; assay type: cell-based; details: 10 min preincubation, 5 nM fMLF; N.A. = no activity at < 50 µM; read-out: FPR1/FPR2 Agonist-Induced Δ[Ca^2+]i FPR1-HL60 IC50
T1 construct: expressed in transfected cells
T1 sequence (P21462 1-350): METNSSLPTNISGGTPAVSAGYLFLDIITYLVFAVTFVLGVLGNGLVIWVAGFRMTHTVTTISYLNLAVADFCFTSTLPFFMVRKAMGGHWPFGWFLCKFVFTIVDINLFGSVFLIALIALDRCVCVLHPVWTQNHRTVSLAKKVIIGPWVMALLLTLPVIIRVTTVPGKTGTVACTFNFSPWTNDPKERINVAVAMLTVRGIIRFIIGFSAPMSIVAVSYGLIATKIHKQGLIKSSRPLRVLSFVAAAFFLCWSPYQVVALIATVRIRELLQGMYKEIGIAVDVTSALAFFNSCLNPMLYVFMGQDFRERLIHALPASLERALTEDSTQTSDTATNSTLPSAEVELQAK
Method: as §1
Human promyelocytic leukemia HL60 cells stably transfected with FPR1 (FPR1-HL60 cells) or FPR2 (FPR2-HL60 cells) (kind gifts from Dr. Marie-Josephe Rabiet, INSERM, Grenoble, France) were cultured in RPMI 1640 medium supplemented with 10% heat-inactivated fetal calf serum, 10 mM HEPES, 100 μg/mL streptomycin, 100 U/mL penicillin, and G418 (1 mg/mL). Although stable cell lines are cultured under G418 selection pressure, G418 may affect some assays, so it was removed in the last round of culture before assays were performed.
as §2

Row | IC50 | Compound
20 | 16.5 ± 3.2 µM | O=C(N1CCOCCOCCN(C(=O)C23CC4CC(CC(C4)C2)C3)CCOCC1)C12CC3CC(CC(C3)C1)C2 [Compound 13, N,N’-bis[1-oxo-1-(1-adamantyl)methyl]-4,10-diaza-15-crown-5]
21 | 11.6 ± 2.1 µM | O=C(N1CCOCCOCCOCCN(C(=O)C23CC4CC(CC(C4)C2)C3)CCOCC1)C12CC3CC(CC(C3)C1)C2 [Compound 14, N,N’-bis[1-oxo-1-(1-adamantyl)methyl]-4,10-diaza-18-crown-6]
22 | 4.8 ± 0.9 µM | O=C(CC12CC3CC(CC(C3)C1)C2)N1CCOCCOCCN(C(=O)CC23CC4CC(CC(C4)C2)C3)CCOCC1 [Compound 15, N,N’-bis[2-(1-adamantyl)acetyl]-4,10-diaza-15-crown-5]
23 | 3.7 ± 0.7 µM | O=C(CC12CC3CC(CC(C3)C1)C2)N1CCOCCOCCN(C(=O)CC23CC4CC(CC(C4)C2)C3)CCOCCOCC1 [Compound 17, N,N’-bis[2-(1-adamantyl)acetyl]-4,13-diaza-18-crown-6]
